# Tested on: Escherichia coli
# Test: Minimum inhibitory concentration against Escherichia coli
# Type: functional
row,SMILES,MIC [mg/L]
1,COc1c(N2CCC(N)CC2)c(F)c(N)c2c(=O)c(C(=O)O)cn(C3CC3)c12,0.1
2,CNCC1CCN(c2cc3c(cc2F)c(=O)c(C(=O)O)cn3-c2ccc(F)cc2F)C1 (centres undefined),0.2
3,CC1CN(c2cc3c(cc2F)c(=O)c(C(=O)O)cn3C2CCC2)CC(C)N1 (centres undefined),0.4
4,CCn1cc(C(=O)O)c(=O)c2cc(F)c(N3CCC(CNC)C3)cc21 (centres undefined),3.1
5,NCC1CCN(c2c(F)cc3c(=O)c(C(=O)O)cn(C4CC4)c3c2F)C1 (centres undefined),0.025
6,COc1c(N2CCNCC2)c(F)cc2c(=O)c(C(=O)O)cn(C3CC3)c12,0.05
7,CNCC1CCN(c2cc3c(cc2F)c(=O)c(C(=O)O)cn3C(C)(C)C)C1 (centres undefined),0.4
8,CC(C)(C)n1cc(C(=O)O)c(=O)c2cc(F)c(N3CCNCC3)cc21,0.2
9,CCOc1c(N2CCC(C)C2)c(F)cc2c(=O)c(C(=O)O)cn(C3CC3)c12 (centres undefined),0.05
10,CC(C)N1CCN(c2cc3c(cc2F)c(=O)c(C(=O)O)cn3-c2ccc(F)cc2F)CC1,0.8
11,CC(N)C1CCN(c2cc3c(c(N)c2F)c(=O)c(C(=O)O)cn3C2CC2)C1 (centres undefined),0.025
12,COc1c(N2CCC(CN)CC2)c(F)cc2c(=O)c(C(=O)O)cn(C3CC3)c12,0.1
13,COc1c(N2CCCC(N)C2)c(F)c(N)c2c(=O)c(C(=O)O)cn(C3CC3)c12 (centres undefined),0.1
14,NC1CCN(c2cc3c(cc2F)c(=O)c(C(=O)O)cn3C2CC2)C1 (centres undefined),0.05
15,CCCCN1CCN(c2cc3c(cc2F)c(=O)c(C(=O)O)cn3C2CC2)CC1,0.1
16,NCC1CCCN(c2c(F)cc3c(=O)c(C(=O)O)cn(C4CC4)c3c2F)C1 (centres undefined),0.05
17,CCN1CCN(c2cc3c(cc2F)c(=O)c(C(=O)O)cn3C2CCC2)CC1,0.8
18,CCOc1c(N2CCCC(N)C2)c(F)cc2c(=O)c(C(=O)O)cn(C3CC3)c12 (centres undefined),0.2
19,CCNCC1CCN(c2c(F)cc3c(=O)c(C(=O)O)cn(C4CC4)c3c2OCC)CC1,0.8
20,Nc1c(F)c(N2CCC(N)C2)c(F)c2c1c(=O)c(C(=O)O)cn2C1CC1 (centres undefined),0.006
21,CNC(C)C1CCN(c2cc3c(c(N)c2F)c(=O)c(C(=O)O)cn3C2CC2)C1 (centres undefined),0.1
22,NCC1CCCN(c2cc3c(cc2F)c(=O)c(C(=O)O)cn3C2CC2)C1 (centres undefined),0.4
23,COc1c(N2CCC(C)(CN)C2)c(F)c(N)c2c(=O)c(C(=O)O)cn(C3CC3)c12 (centres undefined),0.1
24,CCNCC1CCN(c2nc3c(cc2F)c(=O)c(C(=O)O)cn3-c2ccc(F)cc2F)C1 (centres undefined),0.2
25,CCNCC1CCN(c2nc3c(cc2F)c(=O)c(C(=O)O)cn3C2CC2)C1 (centres undefined),0.1

row,SMILES,MIC [mg/L]
1,CCNCC1CCN(c2cc3c(cc2F)c(=O)c(C(=O)O)cn3C2CC2)C1 (centres undefined),0.1
2,NCC1CCN(c2nc3c(cc2F)c(=O)c(C(=O)O)cn3C2CC2)C1 (centres undefined),0.05
3,CC1CN(c2cc3c(cc2F)c(=O)c(C(=O)O)cn3C2CC2)CC(C)N1 (centres undefined),0.05
4,CN(C)CC1CCN(c2cc3c(cc2F)c(=O)c(C(=O)O)cn3C2CC2)C1 (centres undefined),0.2
5,CC(C)n1cc(C(=O)O)c(=O)c2cc(F)c(N3CCC(N)C3)cc21 (centres undefined),0.8
6,O=C(O)c1cn(-c2ccc(F)cc2F)c2cc(N3CCNCC3)c(F)cc2c1=O,0.1
7,CCNCC1CCN(c2cc3c(cc2F)c(=O)c(C(=O)O)cn3-c2ccc(F)cc2F)C1 (centres undefined),0.4
8,NCC1CCCN(c2c(F)cc3c(=O)c(C(=O)O)cn(C4CC4)c3c2N)C1 (centres undefined),0.4
9,NCC1CCCN(c2c(F)cc3c(=O)c(C(=O)O)cn(C4CC4)c3c2Cl)C1 (centres undefined),0.1
10,CC1CN(c2cc3c(cc2F)c(=O)c(C(=O)O)cn3C2CC2)CCN1 (centres undefined),0.05
11,CCOc1c(N2CCCC(CN)C2)c(F)cc2c(=O)c(C(=O)O)cn(C3CC3)c12 (centres undefined),0.2
12,CC(C)N1CCN(c2cc3c(cc2F)c(=O)c(C(=O)O)cn3C2CC2)CC1,0.1
13,CCOc1c(N2CCNC(C)C2)c(F)cc2c(=O)c(C(=O)O)cn(C3CC3)c12 (centres undefined),0.1
14,NC1CCN(c2cc3c(cc2F)c(=O)c(C(=O)O)cn3C2CCC2)C1 (centres undefined),0.4
15,CNCC1CCN(c2cc3c(cc2F)c(=O)c(C(=O)O)cn3C2CCC2)C1 (centres undefined),0.8
16,NCC1CCN(c2c(F)c(N)c3c(=O)c(C(=O)O)cn(C4CC4)c3c2F)C1 (centres undefined),0.013
17,NC1CCN(c2c(F)cc3c(=O)c(C(=O)O)cn(C4CC4)c3c2C(F)(F)F)C1 (centres undefined),0.1
18,COc1c(N2CC(C)NC(C)C2)c(F)cc2c(=O)c(C(=O)O)cn(C3CC3)c12 (centres undefined),0.1
19,NC1CCN(c2c(F)cc3c(=O)c(C(=O)O)cn(C4CC4)c3c2F)C1 (centres undefined),0.013
20,CCn1cc(C(=O)O)c(=O)c2cc(F)c(N3CCC(N)C3)c(OC)c21 (centres undefined),0.2
21,CCOc1c(N2CCC(C)(CN)C2)c(F)c(N)c2c(=O)c(C(=O)O)cn(C3CC3)c12 (centres undefined),0.2
22,CCn1cc(C(=O)O)c(=O)c2cc(F)c(N3CCC(CN)C3)c(F)c21 (centres undefined),0.1
23,CCn1cc(C(=O)O)c(=O)c2cc(F)c(N3CCC(N)C3)cc21 (centres undefined),0.4
24,CCC1CN(c2cc3c(cc2F)c(=O)c(C(=O)O)cn3C2CC2)CCN1 (centres undefined),0.1
25,COc1c(N2CCC(CN)C2)c(F)cc2c(=O)c(C(=O)O)cn(C3CC3)c12 (centres undefined),0.05

row,SMILES,MIC [mg/L]
1,CCOc1c(N2CCC(C)(CN)C2)c(F)cc2c(=O)c(C(=O)O)cn(C3CC3)c12 (centres undefined),0.2
2,CC1CN(c2cc3c(cc2F)c(=O)c(C(=O)O)cn3C(C)C)CCN1 (centres undefined),0.8
3,CC(C)n1cc(C(=O)O)c(=O)c2cc(F)c(N3CCNCC3)cc21,0.8
4,CC1(CN)CCN(c2nc3c(cc2F)c(=O)c(C(=O)O)cn3C2CC2)C1 (centres undefined),0.2
5,CC1CN(c2cc3c(cc2F)c(=O)c(C(=O)O)cn3C2CCC2)CCN1 (centres undefined),0.4
6,CNCC1CCN(c2c(F)c(N)c3c(=O)c(C(=O)O)cn(C4CC4)c3c2F)C1 (centres undefined),0.025
7,COc1c(N2CCN(C)CC2)c(F)cc2c(=O)c(C(=O)O)cn(C3CC3)c12,0.1
8,COc1c(N2CCC(N)C2)c(F)cc2c(=O)c(C(=O)O)cn(C3CC3)c12 (centres undefined),0.025
9,COc1c(N2CCC(C)(CN)C2)c(F)cc2c(=O)c(C(=O)O)cn(C3CC3)c12 (centres undefined),0.1
10,CCN1CCN(c2cc3c(cc2F)c(=O)c(C(=O)O)cn3C(C)C)CC1,1.6
11,NC1CCN(c2nc3c(cc2F)c(=O)c(C(=O)O)cn3C2CC2)C1 (centres undefined),0.013
12,NCC1CCN(c2nc3c(cc2F)c(=O)c(C(=O)O)cn3-c2ccc(F)cc2F)C1 (centres undefined),0.05
13,CCn1cc(C(=O)O)c(=O)c2cc(F)c(N3CCC(N)C3)c(F)c21 (centres undefined),0.05
14,CC(C)NCC1CCN(c2cc3c(cc2F)c(=O)c(C(=O)O)cn3C2CC2)C1 (centres undefined),0.4
15,Nc1c(F)c(N2CCC(N)C2)cc2c1c(=O)c(C(=O)O)cn2C1CC1 (centres undefined),0.013
16,CCNCC1CCN(c2c(F)cc3c(=O)c(C(=O)O)cn(C4CC4)c3c2OC)C1 (centres undefined),0.1
17,CC1(CN)CCN(c2cc3c(cc2F)c(=O)c(C(=O)O)cn3C2CC2)C1 (centres undefined),0.1
18,CCOc1c(N2CCCC(N)C2)c(F)c(N)c2c(=O)c(C(=O)O)cn(C3CC3)c12 (centres undefined),0.2
19,CNCC1CCN(c2cc3c(cc2F)c(=O)c(C(=O)O)cn3C2CC2)C1 (centres undefined),0.2
20,CCN1CCN(c2cc3c(cc2F)c(=O)c(C(=O)O)cn3-c2ccc(F)cc2F)CC1,0.4
21,CC1CN(c2cc3c(cc2F)c(=O)c(C(=O)O)cn3-c2ccc(F)cc2F)CC(C)N1 (centres undefined),0.4
22,CCOc1c(N2CCC(N)C2)c(F)c(N)c2c(=O)c(C(=O)O)cn(C3CC3)c12 (centres undefined),0.05
23,COc1c(N2CCCC(CN)C2)c(F)c(N)c2c(=O)c(C(=O)O)cn(C3CC3)c12 (centres undefined),0.1
24,CN1CCN(c2cc3c(cc2F)c(=O)c(C(=O)O)cn3C2CC2)CC1,0.05

# Source: ChEMBL document CHEMBL1132978, “Artificial neural network applied to prediction of fluorquinolone antibacterial activity by topological methods” (2000)
